Reference: article PMC3004914, “Classification of Drugs Based on Properties of Sodium Channel Inhibition: A Comparative Automated Patch-Clamp Study” (PLoS ONE, 2010)
Like-named read-outs stand apart in the source and are kept apart here.

How the values were obtained:
[1] = biological target: T1, rNav1.2 sodium channels (HEK-293 cells) (Rattus norvegicus, UniProt P04775); experiment: 5 Hz train protocol, QPatch automated patch-clamp; assay type: cell-based; settings: for τoff: 500 s assigned where irreversible; for Rev (reversibility): Rev = A5/A1 after washout; for potency estimated from few doses: −90 mV;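 on UD (use-dependence of the inhibition): UD = (A3/A4)/(A1/A2) as ratios of peak amplitudes from Figure 1A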
T1 sequence (P04775 whole entry): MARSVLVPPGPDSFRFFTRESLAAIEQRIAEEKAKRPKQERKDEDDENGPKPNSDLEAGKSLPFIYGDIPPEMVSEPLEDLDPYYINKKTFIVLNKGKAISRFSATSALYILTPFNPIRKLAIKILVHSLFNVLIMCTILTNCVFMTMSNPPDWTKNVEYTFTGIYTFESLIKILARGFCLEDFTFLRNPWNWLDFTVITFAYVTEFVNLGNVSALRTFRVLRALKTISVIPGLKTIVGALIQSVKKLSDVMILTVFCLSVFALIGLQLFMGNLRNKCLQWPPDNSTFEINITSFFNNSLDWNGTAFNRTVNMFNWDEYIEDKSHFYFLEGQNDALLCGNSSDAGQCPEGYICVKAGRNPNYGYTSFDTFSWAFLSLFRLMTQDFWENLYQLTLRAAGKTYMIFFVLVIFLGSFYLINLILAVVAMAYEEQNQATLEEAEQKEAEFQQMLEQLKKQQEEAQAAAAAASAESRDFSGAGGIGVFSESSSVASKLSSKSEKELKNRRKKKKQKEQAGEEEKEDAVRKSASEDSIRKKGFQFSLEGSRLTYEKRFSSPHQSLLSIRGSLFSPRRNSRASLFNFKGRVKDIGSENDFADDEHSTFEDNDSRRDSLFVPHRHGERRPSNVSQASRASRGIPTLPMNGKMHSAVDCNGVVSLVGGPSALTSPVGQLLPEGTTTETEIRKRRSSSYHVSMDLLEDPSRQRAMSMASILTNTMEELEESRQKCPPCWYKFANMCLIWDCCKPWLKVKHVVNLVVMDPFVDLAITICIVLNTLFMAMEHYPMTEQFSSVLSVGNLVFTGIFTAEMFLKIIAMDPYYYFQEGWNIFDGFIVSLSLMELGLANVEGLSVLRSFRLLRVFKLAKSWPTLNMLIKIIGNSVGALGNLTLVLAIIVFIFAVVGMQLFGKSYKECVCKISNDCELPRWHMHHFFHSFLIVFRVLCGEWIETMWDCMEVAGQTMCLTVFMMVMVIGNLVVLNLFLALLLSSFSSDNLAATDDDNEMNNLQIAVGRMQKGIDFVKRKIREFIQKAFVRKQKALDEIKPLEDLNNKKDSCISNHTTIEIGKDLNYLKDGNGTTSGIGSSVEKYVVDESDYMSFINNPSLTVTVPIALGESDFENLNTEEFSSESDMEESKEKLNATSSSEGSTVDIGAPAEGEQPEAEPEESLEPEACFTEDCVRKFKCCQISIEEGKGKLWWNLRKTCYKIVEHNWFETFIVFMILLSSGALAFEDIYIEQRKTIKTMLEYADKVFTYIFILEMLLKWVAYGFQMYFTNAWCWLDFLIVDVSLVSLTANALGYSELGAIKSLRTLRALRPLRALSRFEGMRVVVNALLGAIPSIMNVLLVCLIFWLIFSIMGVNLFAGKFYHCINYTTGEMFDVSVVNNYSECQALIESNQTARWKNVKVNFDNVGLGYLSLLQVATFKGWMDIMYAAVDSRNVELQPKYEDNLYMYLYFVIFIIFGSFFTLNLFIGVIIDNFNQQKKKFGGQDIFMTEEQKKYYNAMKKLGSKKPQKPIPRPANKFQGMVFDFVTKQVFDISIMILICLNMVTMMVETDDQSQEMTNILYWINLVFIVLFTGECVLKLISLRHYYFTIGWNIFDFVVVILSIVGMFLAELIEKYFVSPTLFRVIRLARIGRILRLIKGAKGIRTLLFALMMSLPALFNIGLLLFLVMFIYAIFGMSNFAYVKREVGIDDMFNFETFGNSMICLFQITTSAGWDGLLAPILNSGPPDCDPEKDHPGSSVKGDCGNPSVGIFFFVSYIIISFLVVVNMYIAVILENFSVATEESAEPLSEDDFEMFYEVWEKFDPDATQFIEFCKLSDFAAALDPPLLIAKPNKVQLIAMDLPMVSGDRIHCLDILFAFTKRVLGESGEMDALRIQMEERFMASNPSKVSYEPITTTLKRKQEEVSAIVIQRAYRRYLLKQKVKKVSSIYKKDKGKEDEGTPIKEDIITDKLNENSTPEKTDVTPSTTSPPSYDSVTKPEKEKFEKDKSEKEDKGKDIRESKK
From the text: The dynamics of the onset and offset of inhibition was monitored using 5 Hz trains of five depolarizing pulses from a holding potential of −90 mV to −10 mV. The trains were repeated every 20 s. Drugs were applied after 10 control trains and 10 trains were delivered in the presence of the drug. The drug was then washed out, and the 10 trains were repeated.
We measured inhibition (Inh; from which we calculated IC50 values as described in Materials and Methods), reversibility of inhibition (Rev) and use-dependence (UD), as well as time constant of onset (τon) and offset (τoff). The calculation of IC50, quantification of Rev and UD, and the determination of time constants are illustrated in Figure 1A. Because τon should be concentration-dependent if we assume a single binding reaction, we excluded it from the analyses. […] Comments on the interpretation of these properties (Rev, […] and UD) are in Results S1.
(§1) A)–D) Peak amplitudes of evoked currents (5 Hz trains of 5 depolarizations from −90 to −10 mV) are plotted against time. Black dots: Control. Grey dots: Drug perfusion. […] Calculation of properties of inhibition is illustrated. […] E) Calculation of Kr and Ki values from steady-state availability curves.
(§2) HEK-293 cells stably expressing rNav1.2 sodium channels were obtained from NeuroSearch (Ballerup, Denmark).
(§3) Cells were automatically prepared for application to the chips (centrifuged and washed twice, then resuspended in extracellular solution) as described previously. Composition of the extracellular solution was: (in mM): 140 NaCl, 3 KCl, 1 CaCl2, 1 MgCl2, 0.1 CdCl2, 20 TEA-Cl, 5 HEPES, adjusted to pH 7.3, Osmolality: ∼320 mOsm.
(§4) All electrophysiological experiments were conducted on Qpatch-16 or QPatch HT instruments using QPlate™ chips. For a detailed description of the instrument and the patch-clamp chips see [37], [38]. Data were sampled at a frequency of 25 kHz and filtered at 5 kHz. […] The amplifier was controlled and the data were collected by the Sophion QPatch client software. For initial data analysis the QPatch software was used. Built-in amplifiers provide an improved method for series resistance compensation. Leak subtraction (based on a standard P/n protocol) was used to subtract the capacitive component of currents.
From this protocol we extracted five parameters, as illustrated in Figure 1A. We calculated inhibition of a single “cc” concentration: Inh = (amplitudectr – amplitudedrug)/amplitudectr.

[2] = biological target: T1, rNav1.2 sodium channels (HEK-293 cells); experiment: steady-state inactivation protocol (availability curves), QPatch automated patch-clamp; assay type: cell-based
From the text: as §1
Standard steady-state inactivation protocols were used to measure the shift of steady-state availability curve caused by the drugs. Currents were evoked by a 10 ms test pulse to −10 mV, preceded by 400 ms pre-pulses from −150 to −30 mV. […] Because the inhibition at hyperpolarized potentials (Inh−150), and the shift of the availability curves (ΔV1/2) are both concentration-dependent properties, we calculated affinities to hyperpolarized and depolarized states (“resting state affinity”: Kr, and “inactivated state affinity”: Ki), which, on the other hand, are concentration-independent characteristics of individual drugs. Calculation of Kr and Ki values are described in Materials and Methods, and illustrated in Figure 1E. State-dependence (SD) was quantified as the ratio Kr/Ki.
as §2, §3, §4
Inactivated affinity (Ki) values were calculated assuming a simple four-state model of drug binding and channel gating, using two separate methods: (1) from the shift of the availability curve (ΔV1/2), the slope of the Boltzmann fit of the availability curve (k) and Kr, using the formula described by Bean, Cohen and Tsien (Ki−ΔV1/2; see Figure 1E), or (2) from the apparent affinity (Kapp) at a certain pre-pulse potential, which was calculated from the inhibition (e.g. Inh−60) as described above, and the availability (h) at the same pre-pulse potential, using the formula from Kuo and Bean (Figure 1E). […] (Arithmetic means and SEM values are given in Results S7.)

[3] = human plasma, cited from earlier work
[4] = HEK293, 100 μM, −90 mV holding potential, 5 Hz train, read-out: Inh (inhibited fraction)
[5] = HEK293, calculated from Inh at single concentration 100 μM, 5 Hz train, read-out: IC50
[6] = HEK293, 100 µM, read-out: Inh (inhibited fraction) at holding potential −150 mV
[7] = arithmetic mean, 100 µM, read-out: Ki-Kapp arith
[8] = arithmetic mean, 100 µM, read-out: Ki-ΔV1/2 arith
[9] = arithmetic mean, 100 µM, read-out: Kr arith
[10] = geometric mean, from Inh at −150 mV, 100 µM, read-out: Kr (resting state affinity)
[11] = geometric mean, from apparent affinity, 100 µM, read-out: Ki−Kapp (inactivated state affinity)
[12] = geometric mean, from shift of availability curve, 100 µM, read-out: Ki−ΔV1/2 (inactivated state affinity)
[13] = HEK293, 300 μM, −90 mV holding potential, 5 Hz train, read-out: Inh (inhibited fraction)
[14] = HEK293, calculated from Inh at single concentration 300 μM, 5 Hz train, read-out: IC50

CC(NC(C)(C)C)C(=O)c1cccc(Cl)c1 (stereo not shown) [BPR, Bupropion]
τon ([1]; 100 μM): 4.6 s | UD (use-dependence of the inhibition) ([1]; 100 μM, 5 Hz train): 1.04 | τoff ([1]; 100 μM): 12.45 s | Rev (reversibility) ([1]; 100 μM): 0.92 | inhibition at 100 µM [1, 4]: 15% | potency estimated from few doses [1, 5]: 565 µM | inhibition at 100 µM [2, 6]: 16% | Ki [2, 7]: 27.4 µM | Ki [2, 8]: 29.1 µM | Kd [2, 9]: 733 µM | Kd [2, 10]: 604 µM | Ki [2, 11]: 25.5 µM | Ki [2, 12]: 26 µM

CN(C)CC/C=C1/c2ccccc2Sc2ccc(Cl)cc21 [CHX, Chlorprothixene]
τon ([1]; 30 μM): 7.24 s | UD (use-dependence of the inhibition) ([1]; 30 μM, 5 Hz train): 1.25 | τoff ([1]; 30 μM): 14.41 s | Rev (reversibility) ([1]; 30 μM): 0.18 | inhibition at 30 µM ([1]; HEK293, 30 μM, −90 mV holding potential, 5 Hz train, read-out: Inh (inhibited fraction)): 28% | potency estimated from few doses ([1]; HEK293, calculated from Inh at single concentration 30 μM, 5 Hz train, read-out: IC50): 42.5 µM | ΔV1/2 (shift of availability curve) ([2]; 30 μM): −15.8 mV | inhibition at 30 µM ([2]; HEK293, 30 µM, read-out: Inh (inhibited fraction) at holding potential −150 mV): 20% | Ki ([2]; arithmetic mean, 30 µM, read-out: Ki-Kapp arith): 2.21 µM | Ki ([2]; arithmetic mean, 30 µM, read-out: Ki-ΔV1/2 arith): 1.14 µM | Kd ([2]; arithmetic mean, 30 µM, read-out: Kr arith): 144 µM | Kd ([2]; geometric mean, from Inh at −150 mV, 30 µM, read-out: Kr (resting state affinity)): 128 µM | Ki ([2]; geometric mean, from apparent affinity, 30 µM, read-out: Ki−Kapp (inactivated state affinity)): 1.74 µM | Ki ([2]; geometric mean, from shift of availability curve, 30 µM, read-out: Ki−ΔV1/2 (inactivated state affinity)): 0.73 µM | plasma conc. ([3]; as printed in each cell): 0.07 [50] µg/ml | plasma conc. ([3]; as printed in the µg/ml cell): 0.200 µM

CN1CCN(C2=Nc3cc(Cl)ccc3Nc3ccccc32)CC1 [CLZ, Clozapine]
plasma conc. ([3]; as printed in each cell): 0.55 [44] µg/ml | plasma conc. ([3]; as printed in the µg/ml cell): 1.671 µM

C#CCN(C)[C@H](C)Cc1ccccc1 [DPR, R-(-)-Deprenyl]
IC50 compared to plasma concentration [1]: exceedingly high | Inh (inhibited fraction) ([1]; 300 μM, −90 mV holding potential, 5 Hz train): 0.22

Fc1ccc(C(c2ccc(F)cc2)N2CCN(C/C=C/c3ccccc3)CC2)cc1 [FLR, Flunarizine]
plasma conc. ([3]; as printed in each cell): 0.06 [58] µg/ml | plasma conc. ([3]; as printed in the µg/ml cell): 0.113 µM

CNCCC(Oc1ccc(C(F)(F)F)cc1)c1ccccc1 (stereo not shown) [FLX, Fluoxetine]
plasma conc. ([3]; as printed in each cell): 0.38 [44] µg/ml | plasma conc. ([3]; as printed in the µg/ml cell): 1.099 µM

NCC1(CC(=O)O)CCCCC1 [GAB, Gabapentin]
potency estimated from few doses ([1]; HEK293, read-out: IC50, calculated from Inh at single concentration 300 μM, 5 Hz train): 14700 µM | inhibition at 300 µM ([1]; HEK293, read-out: Inh (inhibited fraction)): 3% | plasma conc. ([3]; as printed in each cell): 4 [44] µg/ml | plasma conc. ([3]; as printed in the µg/ml cell): 23.359 µM

O=C(CCCN1CCC(O)(c2ccc(Cl)cc2)CC1)c1ccc(F)cc1 [HAL, Haloperidol]
plasma conc. ([3]; as printed in each cell): 0.02 [44] µg/ml | plasma conc. ([3]; as printed in the µg/ml cell): 0.053 µM

O=C(NCCN1CCOCC1)c1ccc(Cl)cc1 [MCL, Moclobemide]
inhibition at 100 µM [1, 4]: 9% | potency estimated from few doses [1, 5]: 1010 µM | plasma conc. ([3]; as printed in each cell): 0.29 [49] µg/ml

CNC1(C)C2CCC(C2)C1(C)C (stereo not shown) [MEC, Mecamylamine]
IC50 compared to plasma concentration [1]: exceedingly high | inhibition at 100 µM [1, 4]: 5% | potency estimated from few doses [1, 5]: 2760 µM | plasma conc. ([3]; as printed in each cell): 0.02 [60] µg/ml | plasma conc. ([3]; as printed in the µg/ml cell): 0.118 µM

CN1CCN2c3ccccc3Cc3ccccc3C2C1 (stereo not shown) [MIA, Mianserin]
plasma conc. ([3]; as printed in each cell): 0.01 [47] µg/ml | plasma conc. ([3]; as printed in the µg/ml cell): 0.037 µM

CNCCCC12CCC(c3ccccc31)c1ccccc12 [MPR, Maprotiline]
plasma conc. ([3]; as printed in each cell): 0.25 [45] µg/ml | plasma conc. ([3]; as printed in the µg/ml cell): 0.797 µM

CN1CCN2c3ncccc3Cc3ccccc3C2C1 (stereo not shown) [MRZ, Mirtazapine]
τon ([1]; 100 μM): 3.99 s | UD (use-dependence of the inhibition) ([1]; 100 μM, 5 Hz train): 1.14 | τoff ([1]; 100 μM): 7.47 s | Rev (reversibility) ([1]; 100 μM): 0.89 | inhibition at 100 µM [1, 4]: 43% | potency estimated from few doses [1, 5]: 132 µM | inhibition at 100 µM [2, 6]: 24% | Ki [2, 7]: 7.94 µM | Ki [2, 8]: 5.65 µM | Kd [2, 9]: 317 µM | Kd [2, 10]: 317 µM | Ki [2, 11]: 7.62 µM | Ki [2, 12]: 5.63 µM

O=C(CCNNC(=O)c1ccncc1)NCc1ccccc1 [NIA, Nialamide]
inhibition at 100 µM [1, 4]: 3% | potency estimated from few doses [1, 5]: 3230 µM

CCN(CC)CCNC(=O)c1ccc(N)cc1 [PRC, Procainamide]
inhibition at 300 µM [1, 13]: 14% | potency estimated from few doses [1, 14]: 2010 µM

CN[C@H]1CC[C@@H](c2ccc(Cl)c(Cl)c2)c2ccccc21 [SRT, Sertraline]
plasma conc. ([3]; as printed in each cell): 0.14 [44] µg/ml | plasma conc. ([3]; as printed in the µg/ml cell): 0.409 µM

CCN(CC)CCNC(=O)c1cc(S(C)(=O)=O)ccc1OC [TIA, Tiapride]
inhibition at 300 µM [1, 13]: 7% | potency estimated from few doses [1, 14]: 3990 µM | plasma conc. ([3]; as printed in each cell): 0.56 [51] µg/ml | plasma conc. ([3]; as printed in the µg/ml cell): 1.535 µM

CC1(C)O[C@@H]2[C@@H](CO[C@@]3(COS(N)(=O)=O)OC(C)(C)O[C@@H]23)O1 [TOP, Topiramate]
inhibition at 300 µM [1, 13]: 7% | potency estimated from few doses [1, 14]: 3990 µM | plasma conc. ([3]; as printed in each cell): 5.5 [44] µg/ml | plasma conc. ([3]; as printed in the µg/ml cell): 16.21 µM

O=c1n(CCCN2CCN(c3cccc(Cl)c3)CC2)nc2ccccn12 [TRZ, Trazodone]
plasma conc. ([3]; as printed in each cell): 1.5 [44] µg/ml | plasma conc. ([3]; as printed in the µg/ml cell): 3.673 µM

NS(=O)(=O)Cc1noc2ccccc12 [ZON, Zonisamide]
inhibition at 300 µM [1, 13]: 9% | potency estimated from few doses [1, 14]: 3030 µM | plasma conc. ([3]; as printed in each cell): 28.4 [44] µg/ml | plasma conc. ([3]; as printed in the µg/ml cell): 133.82 µM
